The subject of data set [1] is YAP/TAZ. Put plainly: MRCS-eGFP on firm substrate treated with mechano-sensing inhibitors (immunofluorescence). The conditions noted are these: firm (~40 kPa) poly-acrylamide; blebbistatin (5004 [sic]), 10 μM ML-7, 20 μM PF228. In kind it is cell-based, human. Here is the method:
FIG. 16A-L illustrate images of exemplary MRCS-eGFP showing that MRCS is stiffness specific in vitro. MRCS was plated on firm (approximately 40 kPa) poly-acrylamide and treated with (FIG. 16A, FIG. 16D, FIG. 16G, FIG. 16J) […] blebbistatin and (FIG. 16B, E, FIG. 16H, FIG. 16K) 10 μM ML-7 (myosin light-chain kinase inhibitors) as well as (FIG. 16C, FIG. 16F, FIG. 16I, FIG. 16K) 20 μM PF228 (focal adhesion kinase inhibitor). […] Scale bar=50 μm.
MRCS-eGFP sensing was also shown to be reversibly stiffness-dependent (FIG. 16). Cells plated on stiff, activating substrate (approximately 40 kPa) were deactivated with the addition of blebbistatin and ML-7 (myosin light-chain kinase inhibitors) or PF228 (a focal adhesion kinase inhibitor). This was seen from the lack of GFP fluorescence (FIG. 16A-C) and from the localization of YAP/TAZ to the cytoplasm (FIG. 16D-F). Real-time RT-PCR was performed on the seeded MRCS-eGFP cells to quantify relative mRNA expression levels of eGFP and two downstream factors of YAP/TAZ, CTGF (Connective Tissue Growth Factor) and ANKRDI (ANKyrin Repeat Domain-containing protein 1) (FIG. 17). […] N-MSC plated on stiff substrate was a control.

Data set [2] relates to YAP/TAZ. Description: MRCS-Luc luciferase activity on substrates with different stiffness. The class given is cell-based, human. As to conditions: compared to uninhibited cells on stiff, activating substrates. Here is the method: FIG. 18 graphically illustrates data showing that MRCS-luciferase (MRCS-Luc) is stiffness specific in vitro. MRCS-Luc was seeded on substrates with different stiffness. […] D-Luciferin: 150 μg/ml in MSC growth medium. *P<0.05, **P<0.01.
The MRCS with engineered reporter-Luc construct (MRCS-Luc) was also found to be stiffness specific in vitro, similar to MRCS-eGFP (FIG. 18). […] C-MSC constitutively expressing luciferase served as a positive control, and N-MSC with no luciferase activity served as a negative control.

Data set [3] deals with YAP/TAZ. Description: MRCS-CD on firm substrate treated with mechano-sensing inhibitors. The class given is cell-based, human. The conditions noted are these: firm (~40 kPa) poly-acrylamide; 50 μM blebbistatin, 10 μM ML-7, 20 μM PF228. Here is the method: FIG. 20 graphically illustrates data showing that MRCS-CD is stiffness specific in vitro based on stiffness inhibitor studies. MRCS was plated on firm (approximately 40 kPa) poly-acrylamide and treated with (A,D,G,J) 50 μM blebbistatin and (B,E,H,K) 10 μM ML-7 (myosin light-chain kinase inhibitors) as well as (C,F,I,K) 20 μM PF228 (focal adhesion kinase inhibitor). […] Scale bar=50 μm.
MRCS-CD sensing was also shown to be reversibly stiffness-dependent (FIG. 20). Cells plated on stiff, activating substrate (approximately 40 kPa) were deactivated with the addition of blebbistatin and ML-7 (myosin light-chain kinase inhibitors) or PF228 (a focal adhesion kinase inhibitor). This was seen from the lack of GFP fluorescence (FIG. 20A-C) and from the localization of YAP/TAZ to the cytoplasm (FIG. 20D-F).

For data set [4] the following is noted: cited from earlier work.

Regarding `Cc1ccc2c(c1)C(=O)C1(O)CCN(c3ccccc3)C1=N2` (stereo not shown) [blebbistatin], in data set [1], the “YAP/TAZ localization in MRCS with inhibitor” value is “in cytoplasm” and the “eGFP of MRCS with inhibitor” value is “turned off”. Further, the “luciferase expression levels of MRCS-Luc with inhibitor” value in data set [2] is reported as “significantly lowered”. Also, in data set [3], the “YAP/TAZ localization in MRCS-CD with inhibitor” value is “in cytoplasm” and the “cytosine deaminase (CD) of MRCS with inhibitor” value is reported as “turned off”.

On to `CS(=O)(=O)c1cccc(CNc2nc(Nc3ccc4c(c3)CCC(=O)N4)ncc2C(F)(F)F)c1` [PF228], for which, in data set [1], the “YAP/TAZ localization in MRCS with inhibitor” value was “in cytoplasm” and the “eGFP of MRCS with inhibitor” value was “turned off”. Besides, the “luciferase expression levels of MRCS-Luc with inhibitor” value in data set [2] is on record as “significantly lowered”. Further, in data set [3], the “YAP/TAZ localization in MRCS-CD with inhibitor” value is given as “in cytoplasm” and the “cytosine deaminase (CD) of MRCS with inhibitor” value is given as “turned off”.

With “E. coli beta-gal: E. coli beta-galactosidase reporter enzyme”, in data set [4], the plasma half-life result is “less than 60 min”.

In the case of `O=S(=O)(c1cccc2c(I)cccc12)N1CCCNCC1` [ML-7], in data set [1], the “YAP/TAZ localization in MRCS with inhibitor” value is “in cytoplasm” and the “eGFP of MRCS with inhibitor” value is reported as “turned off”. The “luciferase expression levels of MRCS-Luc with inhibitor” value in data set [2] was “significantly lowered”. In addition, in data set [3], the “YAP/TAZ localization in MRCS-CD with inhibitor” value is “in cytoplasm” and the “cytosine deaminase (CD) of MRCS with inhibitor” value was “turned off”.
